Results taken from patent publication US7868177B2, “Multi-cyclic compounds and method of use” (Amgen Inc., priority 2006, dated 2011).

What follows are compounds tested against T1, AuroraA-TPX2 (Homo sapiens, UniProt O14965) (assay: AuroraA-TPX2 HTRF kinase assay (Aurora kinase A HTRF assay)).
T1 construct: 20 μL of AuroraA-TPX2 KD GST for a final volume of 41 μL; GST
T1 sequence (O14965 133-383 limits assumed): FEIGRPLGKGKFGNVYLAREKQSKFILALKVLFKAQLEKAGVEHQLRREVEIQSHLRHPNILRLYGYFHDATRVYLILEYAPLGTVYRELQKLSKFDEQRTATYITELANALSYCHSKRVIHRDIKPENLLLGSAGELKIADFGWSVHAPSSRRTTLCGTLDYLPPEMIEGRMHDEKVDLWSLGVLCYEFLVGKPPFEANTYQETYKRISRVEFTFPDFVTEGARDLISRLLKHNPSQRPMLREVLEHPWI
T1 sequence (Q9ULW0 1-43 partner limits assumed): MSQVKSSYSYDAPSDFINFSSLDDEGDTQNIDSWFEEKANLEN
Format: biochemical
Description: AuroraA-TPX2-Homogeneous Time Resolved Fluorescent (HTRF) Kinase Assay:
The AuroraA HTRF assay begins with AuroraA in the presence of ATP phosphorylating the biotinylated peptide PLK. The reaction incubates for about 120 min. Detection reagents are added to quench the reaction. These agents stop the reaction by diluting out the enzyme and chelating the metals due to the presence of EDTA. After addition, the assay is incubated overnight to allow the detection reagents to equilibrate.
The AuroraA HTRF assay comprises 1 μL of compound in 100% DMSO, 20 μL of ATP and biotinylated PLK, and 20 μL of AuroraA-TPX2 KD GST for a final volume of 41 μL. The final concentration of PLK is about 1 μM. […] Buffer conditions are as follows: 60 mM HEPES pH 7.5, 25 mM NaCl, 10 mM MgCl, 2 mM DTT, 0.05% BSA.
The assay is quenched and stopped with 160 μL of detection reagent. Detection reagents are as follows: Buffer made of 50 mM Tris, pH 7.5, 100 mM NaCl, 3 mM EDTA, 0.05% BSA, 0.1% Tween20. Added to this buffer prior to reading is Steptavidin allophycocyanin (SA-APC) at a final conc in the assay of 0.0005 mg/mL, and europilated anti-phosphoPLK Ab (Eu-anti-PLK) at a final conc of 0.02 nM.
The assay plate is read in either a Discovery or a RubyStar. The eu-anti-PLK is excited at 320 nm and emits at 615 nm to excite the SA-APC which in turn emits at 655 nm. The ratio of SA-APC at 655 nm (excited due to close proximity to the Eu-anti-PLK because of phosphorylation of the peptide) to free Eu-anti-PLK at 615 nm will give substrate phosphorylation.

IC50 [µM] | SMILES
≤ 5 | CN1CCCC1CCNc1nccc(-c2cccnc2Oc2ccc(Nc3nc4ccccc4[nH]3)c3ccccc23)n1 (stereo not drawn) [Example 46, N-(4-((3-(2-((2-(1-methyl-2-pyrrolidinyl)ethyl)amino)-4-pyrimidinyl)-2-pyridinyl)oxy)-1-naphthalenyl)-1H-benzimidazol-2-amine]
≤ 5 | Cn1cc(-c2ccccc2)nc1Nc1ccc(Oc2ncccc2-c2ccnc(N)n2)cc1 [Example 115, 4-(2-((4-((1-methyl-4-phenyl-1H-imidazol-2-yl)amino)phenyl)oxy)-3-pyridinyl)-2-pyrimidinamine]
≤ 5 | Cc1ccc2nc(Nc3ccc(Oc4ncccc4-c4ccncn4)c(C)c3)oc2c1 [Example 48, 6-methyl-N-(3-methyl-4-((3-(4-pyrimidinyl)-2-pyridinyl)oxy)phenyl)-1,3-benzoxazol-2-amine]
